Assay results: US7569517B2, “4-biphenyl-substituted pyrazolidin-3 5-diones pesticide agent and/or microbicide and/or herbicide” (Bayer CropScience AG, priority 2003, dated 2009)

What was measured:
Assay type in all cases: in vivo
[1] = test system: green peach aphid (Myzus persicae); test: Myzus test (spray treatment) (Example B); conditions: sprayed Chinese cabbage discs
Method: Myzus Test (Spray Treatment)
(§1) • Solvents: 78 parts by weight of acetone • 1.5 parts by weight of dimethylformamide • Emulsifier: 0.5 part by weight of alkylaryl polyglycol ether
To produce a suitable preparation of active compound, 1 part by weight of active compound is mixed with the stated amounts of solvent and emulsifier, and the concentrate is diluted with emulsifier-containing water to the desired concentration.
Discs of Chinese cabbage (Brassica pekinensis) which are infested by all stages of the green peach aphid (Myzus persicae) are sprayed with a preparation of active compound of the desired concentration.
After the desired period of time, the activity in % is determined. 100% means that all aphids have been killed; 0% means that none of the aphids have been killed.

[2] = test system: caterpillars of the army worm (Spodoptera frugiperda); test: Spodoptera frugiperda test (spray treatment) (Example D); conditions: sprayed maize leaf discs
Method: Spodoptera Frugiperda Test (Spray Treatment)
as §1
(§2) To produce a suitable preparation of active compound, 1 part by weight of active compound is mixed with the stated amounts of solvents and emulsifier, and the concentrate is diluted with emulsifier-containing water to the desired concentration.
Discs of maize leaves (Zea mays) are sprayed with a preparation of active compound of the desired concentration and, after they have dried, populated with caterpillars of the army worm (Spodoptera frugiperda).
After the desired period of time, the activity in % is determined. 100% means that all caterpillars have been killed; 0% means that none of the caterpillars have been killed.

[3] = test system: larvae of the mustard beetle (Phaedon cochleariae); test: Phaedon test (spray treatment) (Example C); conditions: sprayed Chinese cabbage discs
Method: Phaedon Test (Spray Treatment)
as §1, §2
After the desired period of time, the activity in % is determined. 100% means that all beetle larvae have been killed; 0% means that none of the beetle larvae have been killed.

[4] = test system: greenhouse red spider mite (Tetranychus urticae); test: Tetranychus test (OP-resistance/spray treatment) (Example E); conditions: sprayed bean leaf discs
Method: Tetranychus Test (OP-resistance/Spray Treatment)
as §1
To prepare a suitable preparation of active compound, 1 part by weight of active compound is mixed with the stated amounts of solvents and emulsifier, and the concentrate is diluted with emulsifier-containing water to the desired concentration.
Discs of bean leaves (Phaseolus vulgaris) which are infested by all stages of the greenhouse red spider mite (Tetranychus urticae) are sprayed with a preparation of active compound of the desired concentration.
After the desired period of time, the activity in % is determined. 100% means that all spider mites have been killed; 0% means that none of the spider mites have been killed.

COc1ccc(-c2ccc(C)c(C3(Cl)C(=O)N4CCOCCN4C3=O)c2)cc1Cl [Ex. I-2-35]
Kill rate in % after 5d ([1]; 500 g/ha): 100%

Cc1ccc(-c2ccc(F)cc2F)cc1C1(Cl)C(=O)N2CCOCCN2C1=O [Ex. I-2-16]
Kill rate in % after 5d ([1]; 500 g/ha): 100%
Kill rate in % after 7d ([2]; 500 g/ha): 100%

Cc1ccc(-c2cc(Cl)ccc2Cl)cc1C1(Cl)C(=O)N2CCCCN2C1=O [Ex. I-1-14]
Kill rate in % after 7d ([3]; 500 g/ha): 100%
Kill rate in % after 5d ([4]; 500 g/ha): 100%

Cc1cccc(-c2ccc(C)c(C3(Cl)C(=O)N4CCOCCN4C3=O)c2)c1 [Ex. I-2-9]
Kill rate in % after 5d ([4]; 500 g/ha): 90%

Cc1ccc(-c2cccc(F)c2)cc1C1(Cl)C(=O)N2CCCCN2C1=O [Ex. I-1-8]
Kill rate in % after 7d ([2]; 500 g/ha): 100%
Kill rate in % after 5d ([4]; 500 g/ha): 100%

Cc1ccc(-c2ccc(F)c(Cl)c2)cc1C1(Cl)C(=O)N2CCCCN2C1=O [Ex. I-1-19]
Kill rate in % after 7d ([2]; 500 g/ha): 100%

Cc1ccc(-c2cc(Cl)ccc2Cl)cc1C1(Cl)C(=O)N2CCOCCN2C1=O [Ex. I-2-13]
Kill rate in % after 7d ([2]; 500 g/ha): 100%

Cc1ccc(-c2ccccc2Cl)cc1C1(Cl)C(=O)N2CCOCCN2C1=O [Ex. I-2-2]
Kill rate in % after 7d ([2]; 500 g/ha): 100%

Cc1ccc(-c2cc(F)ccc2F)cc1C1(Cl)C(=O)N2CCOCCN2C1=O [Ex. I-2-17]
Kill rate in % after 7d ([3]; 500 g/ha): 100%

Cc1ccc(-c2ccc(F)cc2)cc1C1(Cl)C(=O)N2CCCCN2C1=O [Ex. I-1-1]
Kill rate in % after 5d ([1]; 100 g/ha): 100%
Kill rate in % after 7d ([3]; 100 g/ha): 100%

Cc1ccc(-c2ccccc2)cc1C1(Cl)C(=O)N2CCOCCN2C1=O [Ex. I-2-1]
Kill rate in % after 7d ([3]; 500 g/ha): 100%

Cc1ccc(-c2cccc(F)c2)cc1C1(Cl)C(=O)N2CCOCCN2C1=O [Ex. I-2-6]
Kill rate in % after 5d ([1]; 500 g/ha): 90%
Kill rate in % after 7d ([3]; 500 g/ha): 100%

Cc1ccc(-c2ccc(Cl)cc2)cc1C1(Cl)C(=O)N2CCOCCN2C1=O [Ex. I-2-4]
Kill rate in % after 7d ([2]; 500 g/ha): 100%

Cc1ccc(-c2cccc(Cl)c2)cc1C1(Cl)C(=O)N2CCOCCN2C1=O [Ex. I-2-3]
Kill rate in % after 7d ([2]; 500 g/ha): 100%

Cc1ccc(-c2cccc(Cl)c2Cl)cc1C1(Cl)C(=O)N2CCCCN2C1=O [Ex. I-1-12]
Kill rate in % after 5d ([4]; 500 g/ha): 90%

Cc1ccc(-c2ccc(Cl)cc2)cc1C1(Cl)C(=O)N2CCCCN2C1=O [Ex. I-1-6]
Kill rate in % after 7d ([3]; 500 g/ha): 100%
Kill rate in % after 7d ([2]; 500 g/ha): 100%

Cc1ccc(-c2ccc(C(F)(F)F)cc2)cc1C1(Cl)C(=O)N2CCCCN2C1=O [Ex. I-1-22]
Kill rate in % after 7d ([2]; 100 g/ha): 100%

Cc1ccc(-c2cccc([N+](=O)[O-])c2)cc1C1(Cl)C(=O)N2CCOCCN2C1=O [Ex. I-2-27]
Kill rate in % after 7d ([3]; 500 g/ha): 100%
Kill rate in % after 5d ([4]; 100 g/ha): 100%

Cc1ccc(-c2ccc(C(F)(F)F)cc2)cc1C1(Cl)C(=O)N2CCOCCN2C1=O [Ex. I-2-21]
Kill rate in % after 7d ([2]; 500 g/ha): 100%

Cc1ccc(-c2ccc(F)c(Cl)c2)cc1C1(Cl)C(=O)N2CCOCCN2C1=O [Ex. I-2-18]
Kill rate in % after 5d ([1]; 500 g/ha): 90%
Kill rate in % after 7d ([2]; 500 g/ha): 100%

Cc1ccc(-c2ccc(Cl)cc2Cl)cc1C1(Cl)C(=O)N2CCOCCN2C1=O [Ex. I-2-12]
Kill rate in % after 7d ([3]; 500 g/ha): 100%

Cc1ccc(-c2cc(F)ccc2F)cc1C1(Cl)C(=O)N2CCCCN2C1=O [Ex. I-1-18]
Kill rate in % after 7d ([3]; 500 g/ha): 100%

COc1ccc(Cl)cc1-c1ccc(C)c(C2(Cl)C(=O)N3CCCCN3C2=O)c1 [Ex. I-1-34]
Kill rate in % after 5d ([1]; 500 g/ha): 100%

Cc1ccc(-c2ccc(Oc3ccc(Cl)cc3)cc2)cc1C1(Cl)C(=O)N2CCOCCN2C1=O [Ex. I-2-34]
Kill rate in % after 7d ([3]; 500 g/ha): 100%

Cc1ccc(-c2ccc(F)cc2F)cc1C1(Cl)C(=O)N2CCCCN2C1=O [Ex. I-1-17]
Kill rate in % after 5d ([1]; 500 g/ha): 90%
Kill rate in % after 7d ([3]; 500 g/ha): 100%

Cc1ccc(-c2cc(Cl)cc(Cl)c2)cc1C1(Cl)C(=O)N2CCOCCN2C1=O [Ex. I-2-15]
Kill rate in % after 7d ([3]; 500 g/ha): 100%

Cc1ccc(-c2ccccc2F)cc1C1(Cl)C(=O)N2CCOCCN2C1=O [Ex. I-2-5]
Kill rate in % after 5d ([4]; 500 g/ha): 90%

Cc1ccc(-c2cccc(C(F)(F)F)c2)cc1C1(Cl)C(=O)N2CCOCCN2C1=O [Ex. I-2-20]
Kill rate in % after 7d ([3]; 500 g/ha): 100%

COc1ccc(Cl)c(-c2ccc(C)c(C3(Cl)C(=O)N4CCOCCN4C3=O)c2)c1 [Ex. I-2-23]
Kill rate in % after 5d ([1]; 500 g/ha): 100%

Cc1ccc(-c2ccc(C)c(C3(Cl)C(=O)N4CCCCN4C3=O)c2)cc1 [Ex. I-1-11]
Kill rate in % after 7d ([3]; 500 g/ha): 100%

Cc1ccc(-c2ccccc2C(F)(F)F)cc1C1(Cl)C(=O)N2CCOCCN2C1=O [Ex. I-2-19]
Kill rate in % after 5d ([4]; 500 g/ha): 90%

Cc1ccc(-c2ccc(OC(F)(F)F)cc2)cc1C1(Cl)C(=O)N2CCCCN2C1=O [Ex. I-1-29]
Kill rate in % after 7d ([3]; 500 g/ha): 100%
Kill rate in % after 5d ([4]; 500 g/ha): 100%

Cc1ccc(-c2ccc(OC(F)(F)F)cc2)cc1C1(Cl)C(=O)N2CCOCCN2C1=O [Ex. I-2-28]
Kill rate in % after 5d ([4]; 500 g/ha): 90%

Cc1ccc(-c2ccc(Oc3ccccc3)cc2)cc1C1(Cl)C(=O)N2CCOCCN2C1=O [Ex. I-2-29]
Kill rate in % after 5d ([1]; 500 g/ha): 100%

Cc1ccc(-c2ccc(Cl)cc2Cl)cc1C1(Cl)C(=O)N2CCCCN2C1=O [Ex. I-1-13]
Kill rate in % after 5d ([1]; 500 g/ha): 90%
Kill rate in % after 5d ([4]; 500 g/ha): 100%

Cc1ccc(-c2ccc(Cl)c(Cl)c2)cc1C1(Cl)C(=O)N2CCCCN2C1=O [Ex. I-1-15]
Kill rate in % after 7d ([2]; 500 g/ha): 100%

Cc1cccc(-c2ccc(C)c(C3(Cl)C(=O)N4CCCCN4C3=O)c2)c1 [Ex. I-1-10]
Kill rate in % after 7d ([3]; 500 g/ha): 100%
Kill rate in % after 5d ([4]; 500 g/ha): 100%

Cc1ccc(-c2ccccc2F)cc1C1(Cl)C(=O)N2CCCCN2C1=O [Ex. I-1-7]
Kill rate in % after 5d ([1]; 500 g/ha): 90%
Kill rate in % after 7d ([3]; 500 g/ha): 100%

Cc1ccc(-c2ccccc2)cc1C1(Cl)C(=O)N2CCCCN2C1=O [Ex. I-1-3]
Kill rate in % after 5d ([4]; 500 g/ha): 100%

Cc1ccc(-c2ccc(F)cc2)cc1C1(Cl)C(=O)N2CCOCCN2C1=O [Ex. I-2-7]
Kill rate in % after 7d ([2]; 100 g/ha): 100%
Kill rate in % after 5d ([4]; 100 g/ha): 90%

Cc1ccc(-c2ccc(C)c(C3(Cl)C(=O)N4CCOCCN4C3=O)c2)cc1 [Ex. I-2-10]
Kill rate in % after 7d ([3]; 500 g/ha): 100%

Cc1ccc(-c2ccc(Cl)c(Cl)c2)cc1C1(Cl)C(=O)N2CCOCCN2C1=O [Ex. I-2-14]
Kill rate in % after 7d ([3]; 500 g/ha): 100%

COc1ccccc1-c1ccc(C)c(C2(Cl)C(=O)N3CCOCCN3C2=O)c1 [Ex. I-2-22]
Kill rate in % after 5d ([4]; 100 g/ha): 90%
